Values quoted from earlier work in US4942167A, “Pharmaceutical compositions of piroxicam in aqueous solutions and process for their preparation” (Chiesi Farmaceutici S.p.A., priority 1988, dated 1990).

Settings: in words, background

In the case of `CN1C(C(=O)Nc2ccccn2)=C(O)c2ccccc2S1(=O)=O` [piroxicam, N-(2-pyridyl)-2-methyl-4-hydroxy-2H-1,2-benzothiazine-3-carboxyamido-1,1-dioxide], the water-solubility is listed as “poor”.
